These results are taken from publication PMC4996284 (CNS neuroscience & therapeutics, 2016).

SMILES strings stand for the structures.

The target in assay [1] is T1, rat ASIC1a (Rattus norvegicus, UniProt P55926).
T1 sequence (P55926 1-526): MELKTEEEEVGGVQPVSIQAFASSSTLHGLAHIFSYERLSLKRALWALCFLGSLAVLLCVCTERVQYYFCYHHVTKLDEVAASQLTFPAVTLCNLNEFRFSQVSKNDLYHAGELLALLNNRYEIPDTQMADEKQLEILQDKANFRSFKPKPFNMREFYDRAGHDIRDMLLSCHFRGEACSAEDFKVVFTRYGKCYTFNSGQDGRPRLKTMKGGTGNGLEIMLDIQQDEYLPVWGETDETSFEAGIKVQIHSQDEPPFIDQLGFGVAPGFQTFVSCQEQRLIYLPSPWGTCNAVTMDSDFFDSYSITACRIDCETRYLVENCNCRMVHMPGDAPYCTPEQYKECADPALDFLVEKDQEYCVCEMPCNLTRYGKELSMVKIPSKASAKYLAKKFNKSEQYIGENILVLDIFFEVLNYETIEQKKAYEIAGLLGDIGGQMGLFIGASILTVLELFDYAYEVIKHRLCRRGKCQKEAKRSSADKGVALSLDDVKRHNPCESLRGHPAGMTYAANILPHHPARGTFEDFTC
The assay can be described thus: cell-based.

Assay [2] has as its target T1, rat ASIC1a. To be noted: potency relative to amiloride.
In assay [3] the test system is MCAO-induced focal ischemia. As to the kind of experiment: Transient focal ischemia by middle cerebral artery occlusion. Format: in vivo, mouse. To be noted: mice, 1 µl of 500 µM i.c.v. 3h after MCAO (~12 µM); ACSF 49%.

Turning to `NC(=Nc1ccccc1)NC(=O)c1nc(Cl)c(N)nc1N` [Phenamil], the IC50 (as a rule, the concentration that inhibits the measured activity by half) on rat ASIC1a [1] was determined as 6.95 µM. Moreover, the “increased inhibitory activity on ASIC1a currents in comparison with amiloride” value at rat ASIC1a [2] is ~ 2 fold.

In turn, `CCN(c1nc(N)c(C(=O)NC(=N)N)nc1Cl)C(C)C` [EIPA, 5-(N-ethyl-N-isopropyl)amiloride] came in with an IC50 on rat ASIC1a [1] of 20.7 ± 2.18 µM.

`NC(=NCc1ccccc1)NC(=O)c1nc(Cl)c(N)nc1N` [Benzamil]: at rat ASIC1a [1], the half-inhibitory concentration (IC50) worked out at 3.5 ± 0.18 µM. Moreover, at rat ASIC1a [2], the “increased inhibitory activity on ASIC1a currents in comparison with amiloride” value is listed as ~ 4 fold. The infarct volume in assay [3] is reported as 33.75%.
